Data on six molecules can be found in ChEMBL document CHEMBL1149521, “Synthesis of novel keto-ACE analogues as domain-selective angiotensin I-converting enzyme inhibitors” (Bioorg Med Chem Lett, 2006).

Each structure is given as a SMILES string.

Assay [1] is described as follows: Selectivity for rabbit testis ACE C domain over human ACE N domain.
For assay [2], the target named is T1, Angiotensin-converting enzyme (Oryctolagus cuniculus, UniProt P12822).
T1 sequence (P12822 whole entry): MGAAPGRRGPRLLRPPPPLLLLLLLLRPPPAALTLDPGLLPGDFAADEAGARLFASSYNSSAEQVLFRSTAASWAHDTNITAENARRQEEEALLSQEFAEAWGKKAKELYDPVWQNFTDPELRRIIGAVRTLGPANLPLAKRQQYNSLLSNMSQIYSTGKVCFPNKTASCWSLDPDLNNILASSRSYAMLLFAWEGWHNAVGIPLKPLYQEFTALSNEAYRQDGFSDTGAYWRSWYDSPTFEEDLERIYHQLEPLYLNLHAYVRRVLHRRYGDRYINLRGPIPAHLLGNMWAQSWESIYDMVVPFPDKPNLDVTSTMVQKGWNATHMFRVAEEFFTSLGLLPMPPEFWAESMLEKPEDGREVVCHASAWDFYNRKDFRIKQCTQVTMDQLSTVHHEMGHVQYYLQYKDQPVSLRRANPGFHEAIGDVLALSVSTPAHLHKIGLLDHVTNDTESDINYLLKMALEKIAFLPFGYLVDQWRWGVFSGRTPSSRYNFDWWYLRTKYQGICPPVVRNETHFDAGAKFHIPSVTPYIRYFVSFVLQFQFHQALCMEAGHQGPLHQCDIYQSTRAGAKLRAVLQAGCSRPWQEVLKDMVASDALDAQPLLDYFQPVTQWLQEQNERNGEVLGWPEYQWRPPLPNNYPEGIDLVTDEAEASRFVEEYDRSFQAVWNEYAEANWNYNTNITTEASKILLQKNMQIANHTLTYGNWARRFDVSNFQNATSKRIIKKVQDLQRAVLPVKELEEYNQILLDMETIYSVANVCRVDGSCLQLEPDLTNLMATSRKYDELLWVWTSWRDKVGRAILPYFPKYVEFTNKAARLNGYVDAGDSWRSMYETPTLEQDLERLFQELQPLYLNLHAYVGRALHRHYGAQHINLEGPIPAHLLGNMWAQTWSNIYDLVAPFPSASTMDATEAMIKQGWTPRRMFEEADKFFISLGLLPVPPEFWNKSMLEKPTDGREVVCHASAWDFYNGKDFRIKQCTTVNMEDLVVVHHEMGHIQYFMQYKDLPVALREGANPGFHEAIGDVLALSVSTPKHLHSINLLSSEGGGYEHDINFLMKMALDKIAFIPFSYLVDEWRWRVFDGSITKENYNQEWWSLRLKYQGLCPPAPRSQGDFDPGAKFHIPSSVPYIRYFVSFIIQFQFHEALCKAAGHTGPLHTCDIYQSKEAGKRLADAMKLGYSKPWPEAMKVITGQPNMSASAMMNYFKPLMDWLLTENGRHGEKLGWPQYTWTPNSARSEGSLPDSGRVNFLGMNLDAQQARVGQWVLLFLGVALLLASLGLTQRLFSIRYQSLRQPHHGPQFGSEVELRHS
Briefly: Inhibition of rabbit testis recombinant ACE C domain.

For assay [3], the target named is Angiotensin-converting enzyme (Homo sapiens, UniProt P12821). Briefly: Inhibition of recombinant ACE N domain.
Sequence of Angiotensin-converting enzyme (Homo sapiens, UniProt P12821) (P12821 whole entry): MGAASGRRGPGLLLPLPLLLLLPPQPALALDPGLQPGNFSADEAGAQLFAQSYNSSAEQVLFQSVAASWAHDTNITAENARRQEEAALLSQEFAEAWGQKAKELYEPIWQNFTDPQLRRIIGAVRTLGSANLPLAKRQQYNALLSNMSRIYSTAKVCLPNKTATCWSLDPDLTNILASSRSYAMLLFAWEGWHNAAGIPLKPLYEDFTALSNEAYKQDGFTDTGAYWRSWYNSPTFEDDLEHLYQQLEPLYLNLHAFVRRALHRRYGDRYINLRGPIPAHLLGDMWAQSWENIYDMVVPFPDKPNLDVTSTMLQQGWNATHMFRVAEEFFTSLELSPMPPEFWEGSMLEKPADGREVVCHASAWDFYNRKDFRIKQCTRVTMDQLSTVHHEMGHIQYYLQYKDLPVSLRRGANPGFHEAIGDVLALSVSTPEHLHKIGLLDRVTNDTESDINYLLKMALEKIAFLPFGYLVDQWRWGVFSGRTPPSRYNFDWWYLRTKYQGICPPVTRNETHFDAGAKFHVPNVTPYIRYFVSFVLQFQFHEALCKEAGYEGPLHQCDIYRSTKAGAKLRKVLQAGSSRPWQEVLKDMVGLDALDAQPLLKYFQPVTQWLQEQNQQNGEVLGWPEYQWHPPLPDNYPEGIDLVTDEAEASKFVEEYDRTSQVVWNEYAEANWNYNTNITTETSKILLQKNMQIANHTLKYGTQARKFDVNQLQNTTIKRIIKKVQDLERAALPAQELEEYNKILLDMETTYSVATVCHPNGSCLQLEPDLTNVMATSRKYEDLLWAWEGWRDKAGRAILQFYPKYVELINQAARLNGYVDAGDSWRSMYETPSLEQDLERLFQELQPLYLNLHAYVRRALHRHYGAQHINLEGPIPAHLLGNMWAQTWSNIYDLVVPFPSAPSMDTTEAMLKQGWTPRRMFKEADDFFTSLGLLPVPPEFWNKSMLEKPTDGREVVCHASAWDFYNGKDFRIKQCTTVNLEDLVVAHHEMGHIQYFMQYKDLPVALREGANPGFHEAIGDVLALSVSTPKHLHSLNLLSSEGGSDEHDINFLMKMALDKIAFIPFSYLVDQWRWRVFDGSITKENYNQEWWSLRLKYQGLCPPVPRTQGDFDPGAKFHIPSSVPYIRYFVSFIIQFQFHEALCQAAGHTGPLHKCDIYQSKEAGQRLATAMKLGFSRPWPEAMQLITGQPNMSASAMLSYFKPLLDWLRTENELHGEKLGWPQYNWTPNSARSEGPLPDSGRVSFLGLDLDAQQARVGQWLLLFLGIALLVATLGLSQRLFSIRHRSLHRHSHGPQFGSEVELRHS

On to `O=C(CCC(=O)[C@H](Cc1ccccc1)NC(=O)c1ccccc1)N[C@@H](Cc1ccccc1)C(=O)O`, for which, in assay [1], the Ratio Ki is 3.6. Also, the Ki in assay [2] worked out at 23.7 µM.
Take `O=C(CCC(=O)[C@H](Cc1ccccc1)NC(=O)c1ccccc1)N[C@@H](Cc1c[nH]c2ccccc12)C(=O)O`: the Ratio Ki in assay [1] stood at 245. In addition, the inhibition constant Ki in assay [2] turned out to be 0.8 µM.
Regarding `NCCCC[C@H](N[C@@H](CCc1ccccc1)C(=O)O)C(=O)N1CCC[C@H]1C(=O)O` [LISINOPRIL ANHYDROUS], in assay [2], the Ki was determined as 0.051 µM.
Take `CC(C)(C)OC(=O)N[C@@H](Cc1ccccc1)C(=O)CCC(=O)N[C@@H](Cc1c[nH]c2ccccc12)C(=O)O`: in assay [1], the Ratio Ki stood at 0.04. The values for the Ki in assay [3] and in assay [2] were 13.3 µM and 381 µM, respectively.
On to `CC(C)(C)OC(=O)N[C@@H](Cc1ccccc1)C(=O)CCC(=O)N[C@@H](Cc1ccccc1)C(=O)O`, for which the Ratio Ki in assay [1] turned out to be 0.1. Further, the Ki in assay [3] worked out at 43 µM; in assay [2] it was 313 µM.
`CC(C)(C)OC(=O)N[C@@H](Cc1ccccc1)C(=O)CCC(=O)N1CCC[C@H]1C(=O)O`: the Ratio Ki in assay [1] was determined as 0.2. For the same molecule, the Ki in assay [2] turned out to be 144 µM.

As usually defined, the Ki is the equilibrium dissociation constant of an inhibitor or competing ligand from its target.
